Literature values in US11655474B2, “Suppression of pathological angiogenesis by inhibition of NR2F6” (Regen Biopharma, Inc., priority 2019, dated 2023).

What was measured:
human microvascular ECs = human microvascular ECs cultured in tumor-conditioned medium
[1] = subset that received paclitaxel with the antibody

Row | Molecule | tumor CM-induced MDR1 up-regulation (human microvascular ECs) | HR, overall survival (ovarian cancer patients; bevacizumab plus chemotherapy compared with chemotherapy alone, 95 percent CI: 0.69, 1.14) | median progression free survival (PFS) (ovarian cancer patients; bevacizumab plus chemotherapy, ovarian cancer patients, chemotherapy alone 3.4 months) | median overall survival (OS) (ovarian cancer patients; bevacizumab plus chemotherapy, chemotherapy alone 13.3 months) | improvement in median OS (ovarian cancer patients; [1]) | improvement in median PFS (ovarian cancer patients; [1]) | HR, PFS (ovarian cancer patients; subset that received paclitaxel with the antibody, 95 percent CI: 0.31, 0.72) | HR, OS (ovarian cancer patients; subset that received paclitaxel with the antibody, 95 percent CI: 0.41, 1.01) | median PFS (ovarian cancer patients; subset that received paclitaxel with the antibody, versus 3.9 months) | median OS (ovarian cancer patients; subset that received paclitaxel with the antibody, versus 13.2 months) | objective response rate (ovarian cancer patients; subset that received paclitaxel with the antibody, versus 30 percent)
1 | COc1cc2nccc(Oc3ccc(NC(=O)Nc4ccc(F)cc4F)c(F)c3)c2cc1OC [Ki8751] | blocked |  |  |  |  |  |  |  |  |  | 
2 | bevacizumab: antibody which binds VEGF |  | 0.89 | 6.8 months | 16.6 months | 9.2 month | 5.7 month | 0.47 | 0.64 | 9.6 months | 22.4 months | 53%
